The values below come from article PMC2196313 (The Journal of Experimental Medicine, 1997).

The test system of experiment [1] is CTL clone E8. Format: cell-based, mouse (C57BL/6).
Experiment [2] concerns CTL clone 4G3. Format: cell-based, mouse.
Experiment [3] relates to CTL clone B3. The settings on record: cited from earlier work.
In experiment [4] the test system is CTL clone E8. The experiment is classed as cell-based, mouse (C57BL/6). This is another data set of the same source.
Experiment [5] concerns TCR of CTL clone G9a. The experiment is classed as cell-based, mouse (C57BL/6).

On to SIIG FEK ^* L [O7(N4G)], for which the “inhibition of specific target cell lysis by clone E8” value in experiment [1] was “comparatively poor inhibitors”. Further, in experiment [2], the “inhibition of specific target cell lysis by clone 4G3” value is “most sensitive”. Further, in experiment [3], the “antagonism for clone B3” value is reported as “potent antagonist”.

For the substance SIIR FEK ^* L [O7(N4R)], the “inhibition of specific target cell lysis by clone E8” value in experiment [1] is on record as “no effect within the concentration range tested”. In experiment [4], the “cold target inhibition of lysis by clone E8” value is recorded as “indistinguishable from RMA cells without added peptide”. Besides, the “inhibition of agonist-induced loss of surface TCR on clone G9a” value in experiment [5] is “had no effect”.
